Assay results taken from PubChem BioAssay (NCI).
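Test compounds were applied to cells in 96-well plates for 48 hours at 5 doses. GI50 is the concentration that inhibits growth by half. TGI marks complete inhibition of growth.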

What was measured:
Test in all cases: inhibition of tumour cell growth, NCI panel, 48 h
SK-MEL-5 melanoma = tested on: SK-MEL-5 melanoma
NCI/ADR-RES ovarian = tested on: NCI/ADR-RES ovarian
BT-549 breast = tested on: BT-549 breast
NCI-H460 lung = tested on: NCI-H460 lung
K-562 leukemia = tested on: K-562 leukemia
786-0 renal = tested on: 786-0 renal
SF-539 CNS = tested on: SF-539 CNS
HCC-2998 colon = tested on: HCC-2998 colon
OVCAR-3 ovarian = tested on: OVCAR-3 ovarian
SR leukemia = tested on: SR leukemia
HOP-92 NSCLC = tested on: HOP-92 NSCLC
SF-268 CNS = tested on: SF-268 CNS
HCT-15 colon = tested on: HCT-15 colon
MDA-MB-231 breast = tested on: MDA-MB-231 breast
M14 melanoma = tested on: M14 melanoma
RXF 393 renal = tested on: RXF 393 renal
SK-MEL-28 melanoma = tested on: SK-MEL-28 melanoma
CAKI-1 renal = tested on: CAKI-1 renal
NCI-H226 lung = tested on: NCI-H226 lung
UACC-257 melanoma = tested on: UACC-257 melanoma
SNB-19 CNS = tested on: SNB-19 CNS
HCT-116 colon = tested on: HCT-116 colon
UACC-62 melanoma = tested on: UACC-62 melanoma
SW-620 colon = tested on: SW-620 colon
A498 renal = tested on: A498 renal
NCI-H23 lung = tested on: NCI-H23 lung
SNB-75 CNS = tested on: SNB-75 CNS
CCRF-CEM leukemia = tested on: CCRF-CEM leukemia
PC-3 prostate = tested on: PC-3 prostate
SN12C renal = tested on: SN12C renal
OVCAR-8 ovarian = tested on: OVCAR-8 ovarian
DU-145 prostate = tested on: DU-145 prostate
SK-MEL-2 melanoma = tested on: SK-MEL-2 melanoma
OVCAR-5 ovarian = tested on: OVCAR-5 ovarian
U251 CNS = tested on: U251 CNS
IGROV1 ovarian = tested on: IGROV1 ovarian
OVCAR-4 ovarian = tested on: OVCAR-4 ovarian
SK-OV-3 ovarian = tested on: SK-OV-3 ovarian
NCI-H522 lung = tested on: NCI-H522 lung
MDA-N = tested on: MDA-N
SF-295 CNS = tested on: SF-295 CNS
HT29 colon = tested on: HT29 colon
EKVX NSCLC = tested on: EKVX NSCLC
HL-60(TB) leukemia = tested on: HL-60(TB) leukemia
COLO 205 colon = tested on: COLO 205 colon
MCF7 breast = tested on: MCF7 breast
A549 NSCLC = tested on: A549 NSCLC
TK-10 renal = tested on: TK-10 renal
UO-31 renal = tested on: UO-31 renal
MALME-3M melanoma = tested on: MALME-3M melanoma
ACHN renal = tested on: ACHN renal
HOP-62 NSCLC = tested on: HOP-62 NSCLC
HS 578T breast = tested on: HS 578T breast
MDA-MB-435 = tested on: MDA-MB-435
LOX IMVI melanoma = tested on: LOX IMVI melanoma
MOLT-4 leukemia = tested on: MOLT-4 leukemia
RPMI-8226 leukemia = tested on: RPMI-8226 leukemia
T-47D breast = tested on: T-47D breast
KM12 colon = tested on: KM12 colon

Cc1ccc(-n2cc(-c3ccc(Cl)cc3)c3c2N=CN2NC(c4cccs4)=NC32)cc1 (stereo unspecified)
TGI (SK-MEL-5 melanoma): > 100 µM
TGI (NCI/ADR-RES ovarian): 40.9 µM
TGI (BT-549 breast): 53.7 µM
TGI (NCI-H460 lung): 19.2 µM
TGI (K-562 leukemia): > 100 µM
TGI (786-0 renal): 15.5 µM
TGI (SF-539 CNS): 45.2 µM
TGI (HCC-2998 colon): > 100 µM
TGI (OVCAR-3 ovarian): 35 µM
TGI (SR leukemia): > 100 µM
TGI (HOP-92 NSCLC): 24 µM
TGI (SF-268 CNS): 69.5 µM
TGI (HCT-15 colon): > 100 µM
TGI (MDA-MB-231 breast): 21.5 µM
TGI (M14 melanoma): > 100 µM
TGI (RXF 393 renal): 31.4 µM
TGI (SK-MEL-28 melanoma): > 100 µM
TGI (CAKI-1 renal): 40.4 µM
TGI (NCI-H226 lung): 80.7 µM
TGI (UACC-257 melanoma): > 100 µM
TGI (SNB-19 CNS): 51.1 µM
TGI (HCT-116 colon): 22 µM
TGI (UACC-62 melanoma): 68.6 µM
TGI (SW-620 colon): > 100 µM
TGI (A498 renal): 35.9 µM
TGI (NCI-H23 lung): 52.3 µM
TGI (SNB-75 CNS): 23.4 µM
TGI (CCRF-CEM leukemia): 42.4 µM
TGI (PC-3 prostate): > 100 µM
TGI (SN12C renal): 29 µM
TGI (OVCAR-8 ovarian): 21 µM
TGI (DU-145 prostate): > 100 µM
TGI (SK-MEL-2 melanoma): 33 µM
TGI (OVCAR-5 ovarian): 51 µM
TGI (U251 CNS): 18.1 µM
TGI (IGROV1 ovarian): 34.7 µM
TGI (OVCAR-4 ovarian): 6.17 µM
TGI (SK-OV-3 ovarian): 37.3 µM
TGI (NCI-H522 lung): > 100 µM
TGI (MDA-N): > 100 µM
TGI (SF-295 CNS): 25.2 µM
TGI (HT29 colon): > 100 µM
TGI (EKVX NSCLC): 57.1 µM
TGI (HL-60(TB) leukemia): 45.1 µM
TGI (COLO 205 colon): 28.7 µM
TGI (MCF7 breast): > 100 µM
TGI (A549 NSCLC): > 100 µM
TGI (TK-10 renal): 27.9 µM
TGI (UO-31 renal): 27.7 µM
TGI (MALME-3M melanoma): > 100 µM
TGI (ACHN renal): 19.2 µM
TGI (HOP-62 NSCLC): 35.2 µM
TGI (HS 578T breast): 6.52 µM
TGI (MDA-MB-435): > 100 µM
TGI (LOX IMVI melanoma): > 100 µM

O=C1COCCN1c1ccc(NCc2cn(C(=O)c3ccc(Cl)cc3)c3ccccc23)cc1
GI50 (SK-MEL-5 melanoma): 4.1 µM
TGI (SK-MEL-5 melanoma): 16.3 µM
GI50 (NCI/ADR-RES ovarian): 5.77 µM
TGI (NCI/ADR-RES ovarian): 55.8 µM
GI50 (BT-549 breast): 4.37 µM
TGI (BT-549 breast): 53.7 µM
GI50 (NCI-H460 lung): 0.268 µM
TGI (NCI-H460 lung): 12.7 µM
GI50 (K-562 leukemia): 1.84 µM
TGI (K-562 leukemia): 17 µM
GI50 (MOLT-4 leukemia): 5.66 µM
TGI (MOLT-4 leukemia): 47.8 µM
GI50 (786-0 renal): 2.7 µM
TGI (786-0 renal): > 100 µM
GI50 (SF-539 CNS): 8.49 µM
TGI (SF-539 CNS): 26.2 µM
GI50 (HCC-2998 colon): 12.1 µM
TGI (HCC-2998 colon): 88.4 µM
GI50 (OVCAR-3 ovarian): 1.21 µM
TGI (OVCAR-3 ovarian): 12.5 µM
GI50 (SR leukemia): 3.08 µM
TGI (SR leukemia): > 100 µM
GI50 (HOP-92 NSCLC): 1.66 µM
TGI (HOP-92 NSCLC): 15 µM
GI50 (SF-268 CNS): 13.4 µM
TGI (SF-268 CNS): 95.1 µM
GI50 (HCT-15 colon): 4.07 µM
TGI (HCT-15 colon): 91.2 µM
GI50 (MDA-MB-231 breast): 4.61 µM
TGI (MDA-MB-231 breast): 22.9 µM
GI50 (M14 melanoma): 7.92 µM
TGI (M14 melanoma): > 100 µM
GI50 (RXF 393 renal): 3.09 µM
TGI (RXF 393 renal): 18.3 µM
GI50 (SK-MEL-28 melanoma): 17.8 µM
TGI (SK-MEL-28 melanoma): 80.9 µM
GI50 (CAKI-1 renal): 0.0531 µM
TGI (CAKI-1 renal): 1.8 µM
GI50 (NCI-H226 lung): 0.159 µM
TGI (NCI-H226 lung): 0.543 µM
GI50 (UACC-257 melanoma): 0.276 µM
TGI (UACC-257 melanoma): 1.7 µM
GI50 (SNB-19 CNS): 20.8 µM
TGI (SNB-19 CNS): > 100 µM
GI50 (HCT-116 colon): 0.247 µM
TGI (HCT-116 colon): 19.8 µM
GI50 (UACC-62 melanoma): 0.396 µM
TGI (UACC-62 melanoma): 3.37 µM
GI50 (SW-620 colon): 2.23 µM
TGI (SW-620 colon): > 100 µM
GI50 (A498 renal): 0.0306 µM
TGI (A498 renal): 0.142 µM
GI50 (NCI-H23 lung): 3.79 µM
TGI (NCI-H23 lung): 52.1 µM
GI50 (SNB-75 CNS): 2.6 µM
TGI (SNB-75 CNS): 52.6 µM
GI50 (CCRF-CEM leukemia): 5.62 µM
TGI (CCRF-CEM leukemia): > 100 µM
GI50 (PC-3 prostate): 4.78 µM
TGI (PC-3 prostate): 49.5 µM
GI50 (SN12C renal): 4.96 µM
TGI (SN12C renal): 69.3 µM
GI50 (RPMI-8226 leukemia): 2.13 µM
TGI (RPMI-8226 leukemia): 15.8 µM
GI50 (OVCAR-8 ovarian): 5.04 µM
TGI (OVCAR-8 ovarian): > 100 µM
GI50 (T-47D breast): 0.264 µM
TGI (T-47D breast): 83.8 µM
GI50 (DU-145 prostate): 8.76 µM
TGI (DU-145 prostate): > 100 µM
GI50 (SK-MEL-2 melanoma): 2.19 µM
TGI (SK-MEL-2 melanoma): 15.3 µM
GI50 (OVCAR-5 ovarian): 0.187 µM
TGI (OVCAR-5 ovarian): 0.622 µM
GI50 (U251 CNS): 1.19 µM
TGI (U251 CNS): 25.8 µM
GI50 (IGROV1 ovarian): 0.252 µM
TGI (IGROV1 ovarian): 8.51 µM
GI50 (OVCAR-4 ovarian): 0.494 µM
TGI (OVCAR-4 ovarian): 18.8 µM
GI50 (KM12 colon): 13.7 µM
TGI (KM12 colon): > 100 µM
GI50 (SK-OV-3 ovarian): 2.27 µM
TGI (SK-OV-3 ovarian): 92.1 µM
GI50 (NCI-H522 lung): 5.12 µM
TGI (NCI-H522 lung): 35.9 µM
GI50 (SF-295 CNS): 1.83 µM
TGI (SF-295 CNS): 33.5 µM
GI50 (HT29 colon): 3.79 µM
TGI (HT29 colon): > 100 µM
GI50 (EKVX NSCLC): 17.2 µM
TGI (EKVX NSCLC): > 100 µM
GI50 (HL-60(TB) leukemia): 4.97 µM
TGI (HL-60(TB) leukemia): 20.9 µM
GI50 (COLO 205 colon): 3.28 µM
TGI (COLO 205 colon): 21.8 µM
GI50 (MCF7 breast): 0.293 µM
TGI (MCF7 breast): 15 µM
GI50 (A549 NSCLC): 3.36 µM
TGI (A549 NSCLC): > 100 µM
GI50 (TK-10 renal): 0.148 µM
TGI (TK-10 renal): 2.18 µM
GI50 (UO-31 renal): 2.09 µM
TGI (UO-31 renal): 16.5 µM
GI50 (MALME-3M melanoma): 7.96 µM
TGI (MALME-3M melanoma): 24.9 µM
GI50 (ACHN renal): 3.79 µM
TGI (ACHN renal): 27.5 µM
GI50 (HOP-62 NSCLC): 1.06 µM
TGI (HOP-62 NSCLC): > 100 µM
GI50 (HS 578T breast): 3.86 µM
TGI (HS 578T breast): 39.1 µM
GI50 (MDA-MB-435): 16.4 µM
TGI (MDA-MB-435): 50.1 µM
GI50 (LOX IMVI melanoma): 5.53 µM
TGI (LOX IMVI melanoma): 19.8 µM
